Laboratory results taken from patent US20240343704A1, “HALO-SUBSTITUTED AMINO PYRIDINE COMPOUNDS AS INHIBITORS OF THE HAEMATOPOIETIC PROGENITOR KINASE 1 (HPK1)” (priority 2021, published 2024).

What was measured:
[1] = biological target: T1, Recombinant (1-346) HPK1 (h) (Homo sapiens, UniProt Q92918); assay: HPK1 Human STE Kinase Enzymatic Radiometric Assay; type: biochemical; details: read-out: HPK1 IC50 nM Range*
T1 construct: Recombinant (1-346) HPK1 (h) is incubated with 8 mM MOPS pH 7.0
T1 sequence (Q92918 1-346): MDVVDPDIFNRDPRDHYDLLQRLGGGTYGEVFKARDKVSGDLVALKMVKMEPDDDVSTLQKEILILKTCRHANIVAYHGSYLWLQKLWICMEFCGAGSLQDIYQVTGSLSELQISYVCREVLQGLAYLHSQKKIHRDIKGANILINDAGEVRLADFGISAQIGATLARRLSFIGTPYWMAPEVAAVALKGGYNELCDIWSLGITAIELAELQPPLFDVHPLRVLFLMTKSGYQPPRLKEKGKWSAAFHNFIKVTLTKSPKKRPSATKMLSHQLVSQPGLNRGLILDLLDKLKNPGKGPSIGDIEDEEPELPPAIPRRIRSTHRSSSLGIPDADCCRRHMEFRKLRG
Method: A stock solution of 10 mM of test compound is prepared in DMSO. The compound plate was prepared by 3-fold and 9-point serial dilutions. […] The reaction is initiated by The addition of the Mg/ATP mix. After incubation for 40 minutes at RT, the reaction is stopped by the addition of phosphoric acid to a concentration of 0.5%.

Lck (h) = Lck (h) (Homo sapiens, UniProt P06239); assay: Lck Human  Kinase Enzymatic Radiometric Assay; type: biochemical; details: read-out: Lck IC50 nM Range*
Outline: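 Substrate 33P-incorporation measured by scintillation counting after spotting on P30 filtermat and phosphoric acid washes. Human Lck reacted 40 min at RT in 50 mM Tris pH 7.5 with 10 mM MgAcetate, [gamma-33P]-ATP, 250 uM Cdc2 peptide, 0.1 mM EGTA and 0.1 mM Na3VO4.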

Sequence of Lck (h) (P06239 whole entry): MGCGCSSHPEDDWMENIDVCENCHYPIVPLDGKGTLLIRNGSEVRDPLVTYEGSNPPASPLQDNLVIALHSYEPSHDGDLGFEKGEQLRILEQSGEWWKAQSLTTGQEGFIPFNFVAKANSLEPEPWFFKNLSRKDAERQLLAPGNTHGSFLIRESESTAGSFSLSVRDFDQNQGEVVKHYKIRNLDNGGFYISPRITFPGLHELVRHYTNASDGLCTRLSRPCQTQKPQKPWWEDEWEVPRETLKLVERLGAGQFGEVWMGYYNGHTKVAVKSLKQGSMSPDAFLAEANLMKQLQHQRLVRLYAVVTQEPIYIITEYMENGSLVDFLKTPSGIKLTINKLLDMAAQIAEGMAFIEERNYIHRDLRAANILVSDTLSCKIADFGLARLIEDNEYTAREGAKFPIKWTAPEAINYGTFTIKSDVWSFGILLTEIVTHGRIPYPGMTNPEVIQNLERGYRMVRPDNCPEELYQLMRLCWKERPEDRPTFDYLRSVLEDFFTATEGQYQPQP

`Nc1nc(F)c(-c2ccc3c(c2)CNCC3)cc1-c1ccc2c(c1)CCNC2=O` [I-334, 6-(2-amino-6-fluoro-5-(1,2,3,4-tetrahydroisoquinolin-7-yl)pyridin-3-yl)-3,4-dihydroisoquinolin-1(2H)-one 2,2,2-trifluoroacetate] showed an IC50 [1] of 11 to 100 nM and an IC50 (Lck (h)) greater than 1000 nM.
`CC(C)N1CCc2ccc(-c3cc(-c4ccc5c(c4)CCNC5=O)c(N)nc3F)cc2C1` [I-335, 6-(2-amino-6-fluoro-5-(2-isopropyl-1,2,3,4-tetrahydroisoquinolin-7-yl)pyridin-3-yl)-3,4-dihydroisoquinolin-1(2H)-one] gave an IC50 [1] of 11 to 100 nM and an IC50 (Lck (h)) greater than 1000 nM.
Compound `CC(C)N1CCN(c2ccc(-c3cc(-c4cc(F)c5c(c4)CCNC5=O)c(N)nc3F)cc2)CC1` [I-336, 6-(2-amino-6-fluoro-5-(4-(4-isopropylpiperazin-1-yl)phenyl)pyridin-3-yl)-8-fluoro-3,4-dihydroisoquinolin-1(2H)-one] has an IC50 [1] of 0.1 to 10 nM and an IC50 (Lck (h)) of 101 to 1000 nM.
Work on `Nc1nc(F)c(-c2ccc(OC3CCN(C(=O)CC4CC4)CC3)cc2)cc1-c1ccc2c(c1)CCNC2=O` [I-337, 6-(2-amino-5-(4-((1-(2-cyclopropylacetyl)piperidin-4-yl)oxy)phenyl)-6-fluoropyridin-3-yl)-3,4-dihydroisoquinolin-1(2H)-one] yielded an IC50 [1] of 11 to 100 nM and an IC50 (Lck (h)) greater than 1000 nM.
Compound `Nc1nc(F)c(-c2ccc(OC3CCN(C4COC4)CC3)cc2)cc1-c1ccc2c(c1)CCNC2=O` [I-338, 6-(2-amino-6-fluoro-5-(4-((1-(oxetan-3-yl)piperidin-4-yl)oxy)phenyl)pyridin-3-yl)-3,4-dihydroisoquinolin-1(2H)-one] has an IC50 [1] of 11 to 100 nM and an IC50 (Lck (h)) greater than 1000 nM.
`Nc1nc(F)c(-c2ccc(OC3CNC3)cc2)cc1-c1cc2c(cc1F)C(=O)NCC2` [I-339, 6-(2-amino-5-(4-(azetidin-3-yloxy)phenyl)-6-fluoropyridin-3-yl)-7-fluoro-3,4-dihydroisoquinolin-1(2H)-one 2,2,2-trifluoroacetate] showed an IC50 [1] of 11 to 100 nM and an IC50 (Lck (h)) greater than 1000 nM.
For `Nc1nc(F)c(-c2ccc(C3(F)CNC3)cc2)cc1-c1ccc2c(c1)CCNC2=O` [I-340, 6-(2-amino-6-fluoro-5-(4-(3-fluoroazetidin-3-yl)phenyl)pyridin-3-yl)-3,4-dihydroisoquinolin-1(2H)-one 2,2,2-trifluoroacetate], the IC50 [1] was 0.1 to 10 nM and the IC50 (Lck (h)) was greater than 1000 nM.
In the case of `CC(=O)N1CC(Oc2ccc(-c3cc(-c4cc5c(cc4F)C(=O)NCC5)c(N)nc3F)cc2)C1` [I-341, 6-(5-(4-((1-acetylazetidin-3-yl)oxy)phenyl)-2-amino-6-fluoropyridin-3-yl)-7-fluoro-3,4-dihydroisoquinolin-1(2H)-one], the IC50 [1] was 11 to 100 nM and the IC50 (Lck (h)) was greater than 1000 nM.
`CC(=O)N1CC(F)(c2ccc(-c3cc(-c4ccc5c(c4)CCNC5=O)c(N)nc3F)cc2)C1` [I-342, 6-(5-(4-(1-acetyl-3-fluoroazetidin-3-yl)phenyl)-2-amino-6-fluoropyridin-3-yl)-3,4-dihydroisoquinolin-1(2H)-one] was tested, and the IC50 [1] was 0.1 to 10 nM and the IC50 (Lck (h)) was greater than 1000 nM.
`CN1C[C@H]2C[C@@]2(c2ccc(-c3cc(-c4cc5c(cc4F)C(=O)NCC5)c(N)nc3F)cc2)C1` [I-343, 6-(2-amino-6-fluoro-5-(4-((1R,5S)-3-methyl-3-azabicyclo[3.1.0]hexan-1-yl)phenyl)pyridin-3-yl)-7-fluoro-3,4-dihydroisoquinolin-1(2H)-one] was tested, and the IC50 [1] was 0.1 to 10 nM and the IC50 (Lck (h)) was greater than 1000 nM.
For `CN1C[C@@H]2C[C@]2(c2ccc(-c3cc(-c4cc5c(cc4F)C(=O)NCC5)c(N)nc3F)cc2)C1` [I-344, 6-(2-amino-6-fluoro-5-(4-((1S,5R)-3-methyl-3-azabicyclo[3.1.0]hexan-1-yl)phenyl)pyridin-3-yl)-7-fluoro-3,4-dihydroisoquinolin-1(2H)-one], the IC50 [1] was 0.1 to 10 nM and the IC50 (Lck (h)) was greater than 1000 nM.
For `CC(C)N1CCN(c2ccc(-c3cc(-c4ccc5c(c4)CCNC5=O)c(N)nc3F)c(F)c2F)CC1` [I-345, 6-(2-amino-5-(2,3-difluoro-4-(4-isopropylpiperazin-1-yl)phenyl)-6-fluoropyridin-3-yl)-3,4-dihydroisoquinolin-1(2H)-one], the IC50 [1] was 0.1 to 10 nM and the IC50 (Lck (h)) was greater than 1000 nM.
`Nc1nc(F)c(-c2ccc(N3CCS(=O)(=O)CC3)cc2)cc1-c1cc2c(cc1F)C(=O)NCC2` [I-346, 6-(2-amino-5-(4-(1,1-dioxidothiomorpholino)phenyl)-6-fluoropyridin-3-yl)-7-fluoro-3,4-dihydroisoquinolin-1(2H)-one] gave an IC50 [1] of 0.1 to 10 nM and an IC50 (Lck (h)) greater than 1000 nM.
Work on `Nc1nc(F)c(-c2ccc(N3CCSCC3)cc2)cc1-c1cc2c(cc1F)C(=O)NCC2` [I-347, 6-(2-amino-6-fluoro-5-(4-thiomorpholinophenyl)pyridin-3-yl)-7-fluoro-3,4-dihydroisoquinolin-1(2H)-one] yielded an IC50 [1] of 0.1 to 10 nM and an IC50 (Lck (h)) greater than 1000 nM.
`Nc1nc(F)c(-c2ccc(OC3CCN(C(=O)CCCC[C@@H]4SC[C@@H]5NC(=O)N[C@@H]54)CC3)cc2)cc1-c1ccc2c(c1)CCNC2=O` [I-348, (3aS,4S,6aR)-4-(5-(4-(4-(6-amino-2-fluoro-5-(1-oxo-1,2,3,4-tetrahydroisoquinolin-6-yl)pyridin-3-yl)phenoxy)piperidin-1-yl)-5-oxopentyl)tetrahydro-1H-thieno[3,4-d]imidazol-2(3H)-one] gave an IC50 [1] of 0.1 to 10 nM and an IC50 (Lck (h)) greater than 1000 nM.
With `CC(C)N1CCN(c2ccc(-c3cc(-c4cc5c(cc4Cl)C(=O)NCC5)c(N)nc3F)cc2)CC1` [I-349, 6-(2-amino-6-fluoro-5-(4-(4-isopropylpiperazin-1-yl)phenyl)pyridin-3-yl)-7-chloro-3,4-dihydroisoquinolin-1(2H)-one] the IC50 [1] was 0.1 to 10 nM and the IC50 (Lck (h)) was greater than 1000 nM.
`COCCN1CCC(c2ccc(-c3cc(-c4cc(F)c5c(c4)CCNC5=O)c(N)nc3F)cc2)CC1` [I-350, 6-(2-amino-6-fluoro-5-(4-(1-(2-methoxyethyl)piperidin-4-yl)phenyl)pyridin-3-yl)-8-fluoro-3,4-dihydroisoquinolin-1(2H)-one] was tested, and the IC50 [1] was 0.1 to 10 nM and the IC50 (Lck (h)) was 101 to 1000 nM.
For `CC(C)[C@@H]1CN(c2ccc(-c3cc(-c4cc(F)c5c(c4)CCNC5=O)c(N)nc3F)cc2)CCO1` [I-351, (R)-6-(2-amino-6-fluoro-5-(4-(2-isopropylmorpholino)phenyl)pyridin-3-yl)-8-fluoro-3,4-dihydroisoquinolin-1(2H)-one], the IC50 [1] was 0.1 to 10 nM and the IC50 (Lck (h)) was greater than 1000 nM.
Work on `CN1C[C@H]2C[C@@]2(c2ccc(-c3cc(-c4cc(F)c5c(c4)CCNC5=O)c(N)nc3F)cc2)C1` [I-352, 6-(2-amino-6-fluoro-5-(4-((1R,5S)-3-methyl-3-azabicyclo[3.1.0]hexan-1-yl)phenyl)pyridin-3-yl)-8-fluoro-3,4-dihydroisoquinolin-1(2H)-one] yielded an IC50 [1] of 0.1 to 10 nM and an IC50 (Lck (h)) greater than 1000 nM.
For `CN1C[C@@H]2C[C@]2(c2ccc(-c3cc(-c4cc(F)c5c(c4)CCNC5=O)c(N)nc3F)cc2)C1` [I-353, 6-(2-amino-6-fluoro-5-(4-((1S,5R)-3-methyl-3-azabicyclo[3.1.0]hexan-1-yl)phenyl)pyridin-3-yl)-8-fluoro-3,4-dihydroisoquinolin-1(2H)-one], the IC50 [1] was 0.1 to 10 nM and the IC50 (Lck (h)) was 101 to 1000 nM.
Work on `COc1cc(-c2cc(-c3ccc(N4CCN(C(C)C)CC4)cc3)c(F)nc2N)cc2c1C(=O)NCC2` [I-354, 6-(2-amino-6-fluoro-5-(4-(4-isopropylpiperazin-1-yl)phenyl)pyridin-3-yl)-8-methoxy-3,4-dihydroisoquinolin-1(2H)-one] yielded an IC50 [1] of 101 to 1000 nM and an IC50 (Lck (h)) of 11 to 100 nM.
`CC(C)N1CCN(c2ccc(-c3cc(-c4cc5c(c(N(C)C)c4)C(=O)NCC5)c(N)nc3F)cc2)CC1` [I-355, 6-(2-amino-6-fluoro-5-(4-(4-isopropylpiperazin-1-yl)phenyl)pyridin-3-yl)-8-(dimethylamino)-3,4-dihydroisoquinolin-1(2H)-one] showed an IC50 [1] of 101 to 1000 nM and an IC50 (Lck (h)) greater than 1000 nM.
Work on `CNc1cc(-c2cc(-c3ccc(N4CCN(C(C)C)CC4)cc3)c(F)nc2N)cc2c1C(=O)NCC2` [I-356, 6-(2-amino-6-fluoro-5-(4-(4-isopropylpiperazin-1-yl)phenyl)pyridin-3-yl)-8-(methylamino)-3,4-dihydroisoquinolin-1(2H)-one] yielded an IC50 [1] of 11 to 100 nM and an IC50 (Lck (h)) of 101 to 1000 nM.
`CC(C)N1CCN(c2ccc(-c3cc(-c4cc(N)c5c(c4)CCNC5=O)c(N)nc3F)cc2)CC1` [I-357, 8-amino-6-(2-amino-6-fluoro-5-(4-(4-isopropylpiperazin-1-yl)phenyl)pyridin-3-yl)-3,4-dihydroisoquinolin-1(2H)-one] was tested, and the IC50 [1] was 101 to 1000 nM and the IC50 (Lck (h)) was 101 to 1000 nM.
Work on `CC(C)N1CCN(c2ccc(-c3cc(-c4ccc5c(c4)OCCNC5=O)c(N)nc3F)cc2)CC1` [I-358, 8-(2-amino-6-fluoro-5-(4-(4-isopropylpiperazin-1-yl)phenyl)pyridin-3-yl)-3,4-dihydrobenzo[f][1,4]oxazepin-5(2H)-one] yielded an IC50 [1] of 0.1 to 10 nM and an IC50 (Lck (h)) greater than 1000 nM.
`Nc1nc(F)c(-c2ccc(N3CCS(=O)(=O)CC3)cc2)cc1-c1cc(F)c2c(c1)CCNC2=O` [I-359, 6-(2-amino-5-(4-(1,1-dioxidothiomorpholino)phenyl)-6-fluoropyridin-3-yl)-8-fluoro-3,4-dihydroisoquinolin-1(2H)-one] gave an IC50 [1] of 0.1 to 10 nM and an IC50 (Lck (h)) greater than 1000 nM.
